{"source": "paper PMC10004634", "about": "(PLOS ONE, 2023)", "assay_in_all_cases": "biochemical", "set-up_in_all_cases": "KINOMEscan scanMAX competition binding, DNA-tagged kinases, qPCR read-out, percent control at 300 nM", "key": {"PIK3CA": {"molecular_target": "PIK3CA (Homo sapiens, UniProt P42336)", "sequence (P42336 whole entry)": "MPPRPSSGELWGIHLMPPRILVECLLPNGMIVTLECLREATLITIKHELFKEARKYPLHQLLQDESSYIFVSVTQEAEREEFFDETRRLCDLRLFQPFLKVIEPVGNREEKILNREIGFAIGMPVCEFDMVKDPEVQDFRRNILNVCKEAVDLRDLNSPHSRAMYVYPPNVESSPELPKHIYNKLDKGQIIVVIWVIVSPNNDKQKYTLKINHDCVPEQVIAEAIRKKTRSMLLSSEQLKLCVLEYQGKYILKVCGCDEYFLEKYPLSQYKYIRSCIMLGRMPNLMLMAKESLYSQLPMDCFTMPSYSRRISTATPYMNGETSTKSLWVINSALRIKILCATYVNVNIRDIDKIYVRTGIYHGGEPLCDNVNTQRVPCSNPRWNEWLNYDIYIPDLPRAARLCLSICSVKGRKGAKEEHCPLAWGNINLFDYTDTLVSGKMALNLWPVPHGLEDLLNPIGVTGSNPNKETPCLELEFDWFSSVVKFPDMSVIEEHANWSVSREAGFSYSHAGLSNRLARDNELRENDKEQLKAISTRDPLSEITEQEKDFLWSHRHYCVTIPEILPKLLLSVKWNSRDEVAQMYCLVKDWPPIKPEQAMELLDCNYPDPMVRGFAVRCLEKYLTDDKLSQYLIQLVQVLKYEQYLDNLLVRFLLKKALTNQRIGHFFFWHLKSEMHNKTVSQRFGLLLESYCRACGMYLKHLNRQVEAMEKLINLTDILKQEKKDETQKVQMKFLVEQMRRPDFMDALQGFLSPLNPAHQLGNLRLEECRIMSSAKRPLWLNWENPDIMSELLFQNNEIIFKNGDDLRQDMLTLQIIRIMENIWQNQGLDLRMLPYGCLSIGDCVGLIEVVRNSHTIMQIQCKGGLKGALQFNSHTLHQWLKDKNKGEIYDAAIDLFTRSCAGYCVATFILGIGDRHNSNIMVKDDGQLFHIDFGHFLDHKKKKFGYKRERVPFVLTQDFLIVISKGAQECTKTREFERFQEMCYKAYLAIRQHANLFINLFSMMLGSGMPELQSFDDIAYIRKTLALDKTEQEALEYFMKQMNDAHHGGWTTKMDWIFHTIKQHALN"}, "PRKCI": {"molecular_target": "PRKCI (Homo sapiens, UniProt P41743)", "sequence (P41743 whole entry)": "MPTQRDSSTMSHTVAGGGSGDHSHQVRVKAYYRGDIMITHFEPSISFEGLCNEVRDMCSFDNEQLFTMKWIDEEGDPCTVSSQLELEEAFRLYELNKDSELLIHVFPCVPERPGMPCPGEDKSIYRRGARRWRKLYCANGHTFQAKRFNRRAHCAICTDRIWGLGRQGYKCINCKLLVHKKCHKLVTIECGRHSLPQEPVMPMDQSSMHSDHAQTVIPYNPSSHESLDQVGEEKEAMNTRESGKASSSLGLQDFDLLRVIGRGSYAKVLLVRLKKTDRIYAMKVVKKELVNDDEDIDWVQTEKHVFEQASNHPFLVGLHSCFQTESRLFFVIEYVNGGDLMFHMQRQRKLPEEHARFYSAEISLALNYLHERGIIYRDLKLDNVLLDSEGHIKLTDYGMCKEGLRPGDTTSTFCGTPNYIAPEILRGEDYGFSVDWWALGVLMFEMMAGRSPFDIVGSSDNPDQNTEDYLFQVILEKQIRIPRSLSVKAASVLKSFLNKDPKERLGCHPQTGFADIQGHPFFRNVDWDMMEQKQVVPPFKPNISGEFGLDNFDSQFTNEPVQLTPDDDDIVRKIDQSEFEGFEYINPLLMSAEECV"}, "EPHA7": {"molecular_target": "EPHA7 (Homo sapiens, UniProt Q15375)"}, "RET(V804L)": {"molecular_target": "RET(V804L) (Homo sapiens, UniProt P07949, V804L)", "sequence (P07949 whole entry V804L)": "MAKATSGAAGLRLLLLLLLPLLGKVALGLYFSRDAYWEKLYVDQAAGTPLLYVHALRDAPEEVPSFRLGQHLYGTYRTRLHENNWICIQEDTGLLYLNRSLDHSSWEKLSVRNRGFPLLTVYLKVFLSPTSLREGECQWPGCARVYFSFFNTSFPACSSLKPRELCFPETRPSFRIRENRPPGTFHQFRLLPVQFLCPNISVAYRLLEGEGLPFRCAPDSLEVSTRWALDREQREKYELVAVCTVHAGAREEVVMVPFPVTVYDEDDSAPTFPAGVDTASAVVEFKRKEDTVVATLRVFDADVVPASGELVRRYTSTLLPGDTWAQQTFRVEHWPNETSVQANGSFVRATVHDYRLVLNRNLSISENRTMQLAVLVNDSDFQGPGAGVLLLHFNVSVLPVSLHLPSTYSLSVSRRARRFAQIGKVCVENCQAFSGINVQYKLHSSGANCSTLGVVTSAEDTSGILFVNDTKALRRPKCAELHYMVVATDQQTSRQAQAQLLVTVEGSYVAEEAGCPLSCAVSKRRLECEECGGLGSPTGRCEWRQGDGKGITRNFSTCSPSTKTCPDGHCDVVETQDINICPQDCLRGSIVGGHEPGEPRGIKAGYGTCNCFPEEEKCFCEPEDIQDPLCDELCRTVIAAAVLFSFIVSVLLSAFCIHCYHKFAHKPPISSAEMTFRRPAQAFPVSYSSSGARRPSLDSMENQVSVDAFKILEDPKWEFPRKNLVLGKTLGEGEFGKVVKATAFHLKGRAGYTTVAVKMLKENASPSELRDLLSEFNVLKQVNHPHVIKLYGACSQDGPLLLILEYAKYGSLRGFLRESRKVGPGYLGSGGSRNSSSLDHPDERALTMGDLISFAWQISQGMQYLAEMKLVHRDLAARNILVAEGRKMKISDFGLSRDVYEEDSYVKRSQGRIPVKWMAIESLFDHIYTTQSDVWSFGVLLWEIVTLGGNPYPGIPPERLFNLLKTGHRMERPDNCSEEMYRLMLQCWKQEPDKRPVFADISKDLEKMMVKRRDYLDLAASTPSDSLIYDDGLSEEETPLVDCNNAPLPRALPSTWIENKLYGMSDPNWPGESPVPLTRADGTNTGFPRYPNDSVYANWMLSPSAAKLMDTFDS"}, "NEK11": {"molecular_target": "NEK11 (Homo sapiens, UniProt Q8NG66)"}, "STK36": {"molecular_target": "STK36 (Homo sapiens, UniProt Q9NRP7)"}, "DDR1": {"molecular_target": "DDR1 (Homo sapiens, UniProt Q08345)"}, "PCTK2": {"molecular_target": "T1, PCTK2 (Homo sapiens, UniProt Q00537)", "T1 construct": "gene CDK17"}, "FGFR3(G697C)": {"molecular_target": "FGFR3(G697C) (Homo sapiens, UniProt P22607, G697C)"}, "PIK3C2B": {"molecular_target": "PIK3C2B (Homo sapiens, UniProt O00750)"}, "MRCKB": {"molecular_target": "T2, MRCKB (Homo sapiens, UniProt Q9Y5S2)", "T2 construct": "gene CDC42BPB"}, "[1]": {"molecular_target": "T3, RSK3(Kin.Dom.1-N-terminal) (Homo sapiens, UniProt Q15349)", "T3 construct": "gene RPS6KA2; Kin.Dom.1-N-terminal"}, "MAP4K5": {"molecular_target": "MAP4K5 (Homo sapiens, UniProt Q9Y4K4)"}, "MYLK4": {"molecular_target": "MYLK4 (Homo sapiens, UniProt Q86YV6)", "sequence (Q86YV6 whole entry)": "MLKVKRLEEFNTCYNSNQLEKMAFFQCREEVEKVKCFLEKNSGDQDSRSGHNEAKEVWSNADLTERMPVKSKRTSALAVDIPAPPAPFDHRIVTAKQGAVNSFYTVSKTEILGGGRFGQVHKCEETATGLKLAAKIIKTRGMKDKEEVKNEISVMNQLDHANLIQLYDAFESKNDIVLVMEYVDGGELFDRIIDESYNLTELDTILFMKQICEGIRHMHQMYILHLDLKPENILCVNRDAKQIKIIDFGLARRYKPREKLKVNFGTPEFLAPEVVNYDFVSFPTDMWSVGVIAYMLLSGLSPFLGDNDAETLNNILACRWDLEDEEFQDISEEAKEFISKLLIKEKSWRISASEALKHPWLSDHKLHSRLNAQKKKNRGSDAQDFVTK"}, "PDPK1": {"molecular_target": "PDPK1 (Homo sapiens, UniProt O15530)"}, "HCK": {"molecular_target": "HCK (Homo sapiens, UniProt P08631)", "sequence (P08631 whole entry)": "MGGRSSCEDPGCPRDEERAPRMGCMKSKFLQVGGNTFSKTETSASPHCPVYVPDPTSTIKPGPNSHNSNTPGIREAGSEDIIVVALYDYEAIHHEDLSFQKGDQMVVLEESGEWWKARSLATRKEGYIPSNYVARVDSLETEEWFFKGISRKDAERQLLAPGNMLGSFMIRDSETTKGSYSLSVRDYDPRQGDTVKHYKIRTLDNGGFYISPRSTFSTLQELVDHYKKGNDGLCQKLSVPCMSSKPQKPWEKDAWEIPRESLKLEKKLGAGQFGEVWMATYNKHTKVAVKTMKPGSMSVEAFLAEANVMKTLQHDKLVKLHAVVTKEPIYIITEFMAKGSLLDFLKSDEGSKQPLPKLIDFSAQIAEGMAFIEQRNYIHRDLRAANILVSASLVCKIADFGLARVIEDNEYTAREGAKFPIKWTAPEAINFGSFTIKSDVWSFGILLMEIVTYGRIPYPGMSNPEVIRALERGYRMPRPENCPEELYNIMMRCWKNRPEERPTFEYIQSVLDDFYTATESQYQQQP"}, "TLK1": {"molecular_target": "TLK1 (Homo sapiens, UniProt Q9UKI8)"}, "[2]": {"molecular_target": "T4, RSK3(Kin.Dom.2-C-terminal) (Homo sapiens, UniProt Q15349)", "T4 construct": "gene RPS6KA2; Kin.Dom.2-C-terminal"}, "MERTK": {"molecular_target": "MERTK (Homo sapiens, UniProt Q12866)"}, "MAK": {"molecular_target": "MAK (Homo sapiens, UniProt P20794)", "sequence (P20794 whole entry)": "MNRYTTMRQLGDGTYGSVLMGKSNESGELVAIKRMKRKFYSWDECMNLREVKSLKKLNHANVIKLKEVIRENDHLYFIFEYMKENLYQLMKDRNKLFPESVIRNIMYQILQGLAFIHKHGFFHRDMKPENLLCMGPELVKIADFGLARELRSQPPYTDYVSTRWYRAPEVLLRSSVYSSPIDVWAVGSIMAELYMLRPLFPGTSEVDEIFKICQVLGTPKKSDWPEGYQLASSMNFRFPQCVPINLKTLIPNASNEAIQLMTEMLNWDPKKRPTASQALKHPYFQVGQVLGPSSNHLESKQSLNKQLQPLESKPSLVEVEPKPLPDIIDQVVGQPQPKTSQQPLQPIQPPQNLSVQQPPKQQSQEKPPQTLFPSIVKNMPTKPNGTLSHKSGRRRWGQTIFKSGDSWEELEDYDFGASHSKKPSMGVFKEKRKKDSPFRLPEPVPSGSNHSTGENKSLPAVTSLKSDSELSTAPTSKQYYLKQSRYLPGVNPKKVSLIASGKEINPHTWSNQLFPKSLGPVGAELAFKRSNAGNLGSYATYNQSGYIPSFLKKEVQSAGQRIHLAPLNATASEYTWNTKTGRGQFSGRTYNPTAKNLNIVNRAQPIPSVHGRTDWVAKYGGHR"}, "[3]": {"molecular_target": "T5, RSK1(Kin.Dom.2-C-terminal) (Homo sapiens, UniProt Q15418)", "T5 construct": "gene RPS6KA1; Kin.Dom.2-C-terminal", "T5 sequence (Q15418 whole entry)": "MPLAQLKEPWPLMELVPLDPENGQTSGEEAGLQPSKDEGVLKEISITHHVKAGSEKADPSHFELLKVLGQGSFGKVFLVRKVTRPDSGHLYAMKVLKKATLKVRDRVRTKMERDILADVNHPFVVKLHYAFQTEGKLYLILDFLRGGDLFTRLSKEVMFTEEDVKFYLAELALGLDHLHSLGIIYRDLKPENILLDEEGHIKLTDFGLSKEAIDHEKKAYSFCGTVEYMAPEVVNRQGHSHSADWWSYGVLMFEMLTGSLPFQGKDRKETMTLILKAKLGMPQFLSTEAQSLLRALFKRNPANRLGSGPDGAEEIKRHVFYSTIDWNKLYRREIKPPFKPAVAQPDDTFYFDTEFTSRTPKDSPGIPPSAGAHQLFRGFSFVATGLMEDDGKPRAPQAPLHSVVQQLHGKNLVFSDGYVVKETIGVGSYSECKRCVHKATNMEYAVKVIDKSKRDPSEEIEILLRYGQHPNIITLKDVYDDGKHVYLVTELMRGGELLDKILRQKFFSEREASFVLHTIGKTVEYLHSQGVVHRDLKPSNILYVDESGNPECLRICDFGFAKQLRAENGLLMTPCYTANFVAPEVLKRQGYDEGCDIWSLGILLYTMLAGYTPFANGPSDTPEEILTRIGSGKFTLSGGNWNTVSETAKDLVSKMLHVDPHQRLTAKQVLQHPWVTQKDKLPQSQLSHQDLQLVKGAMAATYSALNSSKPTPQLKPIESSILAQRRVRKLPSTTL"}, "CLK4": {"molecular_target": "CLK4 (Homo sapiens, UniProt Q9HAZ1)"}, "DYRK2": {"molecular_target": "DYRK2 (Homo sapiens, UniProt Q92630)"}, "[4]": {"details": "read-out: Percent control / Acalabrutinib"}, "[5]": {"details": "read-out: Percent control / Ibrutinib"}, "[6]": {"details": "read-out: Percent control / Tirabrutinib"}, "[7]": {"details": "read-out: Percent control / Zanubrutinib"}}, "note": "Where two headings read alike, the source gives them in different places."}
{"smiles": "CC#CC(=O)N1CCC[C@H]1c1nc(-c2ccc(C(=O)Nc3ccccn3)cc2)c2c(N)nccn12", "note": "[Acalabrutinib]", "values": [{"measurement": "remaining binding at 0.3 µM", "setting": "PIK3CA; [4]", "value": 97, "unit": "%"}, {"measurement": "remaining binding at 0.3 µM", "setting": "PRKCI; [4]", "value": 87, "unit": "%"}, {"measurement": "remaining binding at 0.3 µM", "setting": "EPHA7; [4]", "value": 99, "unit": "%"}, {"measurement": "remaining binding at 0.3 µM", "setting": "RET(V804L); [4]", "value": 99, "unit": "%"}, {"measurement": "remaining binding at 0.3 µM", "setting": "NEK11; [4]", "value": 97, "unit": "%"}, {"measurement": "remaining binding at 0.3 µM", "setting": "STK36; [4]", "value": 90, "unit": "%"}, {"measurement": "remaining binding at 0.3 µM", "setting": "DDR1; [4]", "value": 86, "unit": "%"}, {"measurement": "remaining binding at 0.3 µM", "setting": "PCTK2; [4]", "value": 97, "unit": "%"}, {"measurement": "remaining binding at 0.3 µM", "setting": "FGFR3(G697C); [4]", "value": 79, "unit": "%"}, {"measurement": "remaining binding at 0.3 µM", "setting": "PIK3C2B; [4]", "value": 93, "unit": "%"}, {"measurement": "remaining binding at 0.3 µM", "setting": "MRCKB; [4]", "value": 93, "unit": "%"}, {"measurement": "remaining binding at 0.3 µM", "setting": "[1]; [4]", "value": 85, "unit": "%"}, {"measurement": "remaining binding at 0.3 µM", "setting": "MAP4K5; [4]", "value": 90, "unit": "%"}]}
{"smiles": "C=CC(=O)N1CCC[C@@H](n2nc(-c3ccc(Oc4ccccc4)cc3)c3c(N)ncnc32)C1", "note": "[Ibrutinib]", "values": [{"measurement": "remaining binding at 0.3 µM", "setting": "MYLK4; [5]", "value": 94, "unit": "%"}, {"measurement": "remaining binding at 0.3 µM", "setting": "PDPK1; [5]", "value": 99, "unit": "%"}, {"measurement": "remaining binding at 0.3 µM", "setting": "HCK; [5]", "value": 4.5, "unit": "%"}, {"measurement": "remaining binding at 0.3 µM", "setting": "STK36; [5]", "value": 71, "unit": "%"}, {"measurement": "remaining binding at 0.3 µM", "setting": "TLK1; [5]", "value": 80, "unit": "%"}, {"measurement": "remaining binding at 0.3 µM", "setting": "[2]; [5]", "value": 90, "unit": "%"}, {"measurement": "remaining binding at 0.3 µM", "setting": "MERTK; [5]", "value": 70, "unit": "%"}, {"measurement": "remaining binding at 0.3 µM", "setting": "FGFR3(G697C); [5]", "value": 77, "unit": "%"}]}
{"smiles": "CC#CC(=O)N1CC[C@@H](n2c(=O)n(-c3ccc(Oc4ccccc4)cc3)c3c(N)ncnc32)C1", "note": "[Tirabrutinib]", "values": [{"measurement": "remaining binding at 0.3 µM", "setting": "MAK; [6]", "value": 94, "unit": "%"}, {"measurement": "remaining binding at 0.3 µM", "setting": "[3]; [6]", "value": 88, "unit": "%"}, {"measurement": "remaining binding at 0.3 µM", "setting": "CLK4; [6]", "value": 82, "unit": "%"}, {"measurement": "remaining binding at 0.3 µM", "setting": "HCK; [6]", "value": 57, "unit": "%"}, {"measurement": "remaining binding at 0.3 µM", "setting": "DYRK2; [6]", "value": 99, "unit": "%"}]}
{"smiles": "C=CC(=O)N1CCC([C@@H]2CCNc3c(C(N)=O)c(-c4ccc(Oc5ccccc5)cc4)nn32)CC1", "note": "[Zanubrutinib]", "values": [{"measurement": "remaining binding at 0.3 µM", "setting": "MAK; [7]", "value": 100, "unit": "%"}, {"measurement": "remaining binding at 0.3 µM", "setting": "PIK3CA; [7]", "value": 57, "unit": "%"}, {"measurement": "remaining binding at 0.3 µM", "setting": "[3]; [7]", "value": 92, "unit": "%"}, {"measurement": "remaining binding at 0.3 µM", "setting": "PRKCI; [7]", "value": 68, "unit": "%"}, {"measurement": "remaining binding at 0.3 µM", "setting": "CLK4; [7]", "value": 99, "unit": "%"}, {"measurement": "remaining binding at 0.3 µM", "setting": "MYLK4; [7]", "value": 96, "unit": "%"}, {"measurement": "remaining binding at 0.3 µM", "setting": "PDPK1; [7]", "value": 100, "unit": "%"}, {"measurement": "remaining binding at 0.3 µM", "setting": "EPHA7; [7]", "value": 97, "unit": "%"}, {"measurement": "remaining binding at 0.3 µM", "setting": "RET(V804L); [7]", "value": 100, "unit": "%"}, {"measurement": "remaining binding at 0.3 µM", "setting": "NEK11; [7]", "value": 98, "unit": "%"}, {"measurement": "remaining binding at 0.3 µM", "setting": "TLK1; [7]", "value": 92, "unit": "%"}, {"measurement": "remaining binding at 0.3 µM", "setting": "[2]; [7]", "value": 84, "unit": "%"}, {"measurement": "remaining binding at 0.3 µM", "setting": "DDR1; [7]", "value": 100, "unit": "%"}, {"measurement": "remaining binding at 0.3 µM", "setting": "MERTK; [7]", "value": 91, "unit": "%"}, {"measurement": "remaining binding at 0.3 µM", "setting": "DYRK2; [7]", "value": 81, "unit": "%"}, {"measurement": "remaining binding at 0.3 µM", "setting": "PCTK2; [7]", "value": 82, "unit": "%"}, {"measurement": "remaining binding at 0.3 µM", "setting": "PIK3C2B; [7]", "value": 62, "unit": "%"}, {"measurement": "remaining binding at 0.3 µM", "setting": "MRCKB; [7]", "value": 90, "unit": "%"}, {"measurement": "remaining binding at 0.3 µM", "setting": "[1]; [7]", "value": 100, "unit": "%"}, {"measurement": "remaining binding at 0.3 µM", "setting": "MAP4K5; [7]", "value": 98, "unit": "%"}]}
